# Laboratory results from patent publication US4983328A, “N-(4-(3-aminopropyl)aminobutyl)-2-(ω-gua nidino-fatty-acid-amido(-2-substituted-ethanamide, salt thereof, and process for preparation thereof” (Bristol-Myers Company, priority 1981, dated 1991).
# Assays:
# [1] = system: mouse leukemia L-1210 cells; assay: growth inhibitory activity to cancer cells in vitro (L-1210, 48 hours); assay type: cell-based; details: for inhibition at 5 µg/mL: L1210, 5 mcg/ml; for inhibition at 10 µg/mL: L1210, 10 mcg/ml; for inhibition at 20 µg/mL: L1210, 20 mcg/ml; for inhibition at 40 µg/mL: L1210, 40 mcg/ml; for inhibition at 80 µg/mL: L1210, 80 mcg/ml; for IC50: L1210, L-1210 cells, read-out: 50% inhibitory concentration; for inhibition at 1.25 µg/mL: L1210, 1.25 mcg/ml; for inhibition at 2.5 µg/mL: L1210, 2.5 mcg/ml
# Experimental: DBA/2 mice were implanted with 10^5 mouse leukemia L-1210 cells. The ascites collected asceptically from the mice after 4 days of feeding was washed three times with physiological saline to obtain L-1210 cells, which was then suspended in RPMI 1640 culture medium [G. E. Moore, Journal of the American Medical Association, Vol. 199, 519 (1967); H. J. Morton, In Vitro, Vol. 6, 89 (1970)] to which 10% fetal calf serum and 5 μM 2-mercaptoethanol had been added, and the resulting suspension was diluted to 5×10^4 L-1210 cells per 0.9 ml. A microplate carrying 0.9 ml of the cell suspension and 0.1 ml of the culture medium containing the sample being tested was kept in a carbon dioxide incubator at 37° C. After 48 hours of cultivation, the number of cells was measured by means of a Coulter Counter (Coulter Electronics, Inc., U.S.A.) to obtain the growth inhibition (%)=(1--T/C )×100=[1-(number of grown cells in medium containing sample/(number of grown cells in control medium)]×100. The 50% growth inhibitory concentration was calculated from the values of growth inhibition at varied sample concentrations. The results of tests on typical compounds of this invention for the growth inhibition of L-1210 cells were as shown in Table 6.
# mouse leukemia L-1210 = assay: therapeutic effect on implanted cancer in mice (L-1210, survival over 30 days); assay type: in vivo, mouse (BDF1); details: L1210, ip, 720 h, 6 days; for responders at 0.2 mg/kg / response vs control in vivo at 0.2 mg/kg: 0.20 mg/kg/day i.p.; for responders at 0.2 mg/kg / responders at 0.39 mg/kg / responders at 0.78 mg/kg / responders at 1.56 mg/kg / responders at 3.13 mg/kg / responders at 6.25 mg/kg / responders at 12.5 mg/kg / responders at 25 mg/kg / responders at 50 mg/kg: read-out: Number of mice survived for 30 days (converted); for responders at 0.39 mg/kg / response vs control in vivo at 0.39 mg/kg: 0.39 mg/kg/day i.p.; for responders at 0.78 mg/kg / response vs control in vivo at 0.78 mg/kg: 0.78 mg/kg/day i.p.; for responders at 1.56 mg/kg / response vs control in vivo at 1.56 mg/kg: 1.56 mg/kg/day i.p.; for responders at 3.13 mg/kg / response vs control in vivo at 3.13 mg/kg: 3.13 mg/kg/day i.p.; for responders at 6.25 mg/kg / response vs control in vivo at 6.25 mg/kg: 6.25 mg/kg/day i.p.; for responders at 12.5 mg/kg / response vs control in vivo at 12.5 mg/kg: 12.5 mg/kg/day i.p.; for responders at 25 mg/kg / response vs control in vivo at 25 mg/kg: 25 mg/kg/day i.p.; for responders at 50 mg/kg / response vs control in vivo at 50 mg/kg: 50 mg/kg/day i.p.
# From the text: BDF1 strain male mice (5 weeks old) were each inoculated intraperitoneally with 10^5 mouse leukemia L-1210 cells and treated once a day by intraperitoneal injection with a test compound dissolved in physiological saline for 6 consecutive days beginning from the day of inoculation. The mice were then observed for 30 days to determine the rate of prolongation of survival period=100×T/C=100×(average survival days of treated group)/(average survival days of control group).
# [2] = acute toxicity in mice (single intraperitoneal administration); details: mouse, in vivo, ip; mice, single i.p.; read-out: LD50 (median lethal dose on single administration)
# Experimental: (§1) In Table 8 median lethal doses (LD50) of typical compounds of this invention are shown, measured in mice upon single intraperitoneal administration, as well as maximum tolerated doses in terms of total dose when a fixed amount per unit body weight was administered intraperitoneally to mice once a day for 6 consecutive days.
# *Median lethal dose on single administration.
# [3] = cumulative toxicity in mice (maximum tolerated dose, once a day for 6 consecutive days); details: mouse, in vivo, ip, i.p. once a day for 6 consecutive days, total dose, read-out: Maximum Tolerated Dose (total dose not causing death)
# Experimental: as §1
# **Maximum value of the total dose not causing death when a fixed amount
# per unit body weight is administered to mice once a day for 6 consecutive
# [4] = read-out: Growth inhibition (%), (1-T/C) × 100
# [5] = read-out: Prolongation of survival period (%), T/C × 100
SMILES,"inhibition at 5 µg/mL [1, 4]","inhibition at 10 µg/mL [1, 4]","inhibition at 20 µg/mL [1, 4]","inhibition at 40 µg/mL [1, 4]","inhibition at 80 µg/mL [1, 4]",IC50 [1],responders at 0.2 mg/kg (mouse leukemia L-1210),response vs control in vivo at 0.2 mg/kg (mouse leukemia L-1210; [5]),responders at 0.39 mg/kg (mouse leukemia L-1210),response vs control in vivo at 0.39 mg/kg (mouse leukemia L-1210; [5]),responders at 1.56 mg/kg (mouse leukemia L-1210),response vs control in vivo at 1.56 mg/kg (mouse leukemia L-1210; [5]),responders at 3.13 mg/kg (mouse leukemia L-1210),response vs control in vivo at 3.13 mg/kg (mouse leukemia L-1210; [5]),responders at 6.25 mg/kg (mouse leukemia L-1210),response vs control in vivo at 6.25 mg/kg (mouse leukemia L-1210; [5]),responders at 12.5 mg/kg (mouse leukemia L-1210),response vs control in vivo at 12.5 mg/kg (mouse leukemia L-1210; [5]),LD50 [2],MTD [3],further results
"COC(NC(=O)CCCCCCCCNC(=N)N)C(=O)NCCCCNCCCN (stereo not drawn) [Compound 11, N-[4-(3-aminopropyl)aminobutyl]-2-(9-guanidinononanamido)-2-methoxyethanamide]",35%,52.2%,59.4%,71.8%,77.9%,10 µg/mL,0%,107%,0%,143%,0%,200%,50%,> 357%,75%,> 393%,50%,> 357%,12.5 to 25 mg/kg,> 75 mg/kg,responders at 0.78 mg/kg (mouse leukemia L-1210): 0%; response vs control in vivo at 0.78 mg/kg (mouse leukemia L-1210; [5]): 200%; responders at 25 mg/kg (mouse leukemia L-1210): 0%; response vs control in vivo at 25 mg/kg (mouse leukemia L-1210; [5]): 0%; responders at 50 mg/kg (mouse leukemia L-1210): 0%; response vs control in vivo at 50 mg/kg (mouse leukemia L-1210; [5]): 0%
"N=C(N)NCCCCCCCCC(=O)NC(O)C(=O)NCCCCNCCCN (stereo not drawn) [Compound 6, N-[4-(3-aminopropyl)aminobutyl]-2-(9-guanidinononanamido)-2-hydroxyethanamide]",45.5%,50.3%,57.5%,–,–,8 µg/mL,50%,> 354%,50%,> 383%,75%,> 393%,50%,> 386%,100%,> 429%,100%,> 429%,12.5 to 25 mg/kg,> 75 mg/kg,"inhibition at 1.25 µg/mL [1, 4]: 38%; inhibition at 2.5 µg/mL [1, 4]: 40.3%; responders at 0.78 mg/kg (mouse leukemia L-1210): 100%; response vs control in vivo at 0.78 mg/kg (mouse leukemia L-1210; [5]): > 429%; responders at 25 mg/kg (mouse leukemia L-1210): 0%; response vs control in vivo at 25 mg/kg (mouse leukemia L-1210; [5]): 0%; responders at 50 mg/kg (mouse leukemia L-1210): 0%; response vs control in vivo at 50 mg/kg (mouse leukemia L-1210; [5]): 0%"
"COC(NC(=O)CCCCCCCNC(=N)N)C(=O)NCCCCNCCCN (stereo not drawn) [Compound 10, N-[4-(3-aminopropyl)aminobutyl]-2-(8-guanidinooctanamido)-2-methoxyethanamide]",19.9%,28.5%,36.5%,52.4%,62.4%,39 µg/mL,–,–,–,–,0%,100%,0%,100%,0%,107%,0%,129%,12.5 to 25 mg/kg,> 75 mg/kg,"inhibition at 160 µg/mL ([1]; L1210, 160 mcg/ml, read-out: Growth inhibition (%), (1-T/C) × 100): 79.5%; responders at 25 mg/kg (mouse leukemia L-1210): 0%; response vs control in vivo at 25 mg/kg (mouse leukemia L-1210; [5]): 0%; responders at 50 mg/kg (mouse leukemia L-1210): 0%; response vs control in vivo at 50 mg/kg (mouse leukemia L-1210; [5]): 0%"
"N=C(N)NCCCCCCC=CC(=O)NC(O)C(=O)NCCCCNCCCN (stereo not drawn) [Compound 18, N-[4-(3-aminopropyl)aminobutyl]-2-(9-guanidino-2-nonenamido)-2-hydroxyethanamide]",15.7%,20.9%,29.5%,32.3%,47.8%,90 µg/mL,0%,136%,0%,157%,75%,> 429%,100%,> 429%,50%,> 350%,0%,0%,6.25 to 12.5 mg/kg,> 37.5 mg/kg,"responders at 0.1 mg/kg (mouse leukemia L-1210; 0.10 mg/kg/day i.p., read-out: Number of mice survived for 30 days): 0%; response vs control in vivo at 0.1 mg/kg (mouse leukemia L-1210; 0.10 mg/kg/day i.p., read-out: Prolongation of survival period (%), T/C × 100): 129%; responders at 0.78 mg/kg (mouse leukemia L-1210): 0%; response vs control in vivo at 0.78 mg/kg (mouse leukemia L-1210; [5]): 200%"
"COC(NC(=O)C=CCCCCNC(=N)N)C(=O)NCCCCNCCCN (stereo not drawn) [Compound 19, N-[4-(3-aminopropyl)aminobutyl]-2-(7-guanidino-2-heptenamido)-2-methoxyethanamide]",46.4%,56.4%,75.6%,85.4%,93.1%,6.3 µg/mL,0%,100%,0%,107%,50%,> 350%,50%,> 321%,75%,> 429%,50%,> 364%,12.5 to 25 mg/kg,> 75 mg/kg,"inhibition at 1.25 µg/mL [1, 4]: 29.9%; inhibition at 2.5 µg/mL [1, 4]: 32.2%; responders at 0.78 mg/kg (mouse leukemia L-1210): 0%; response vs control in vivo at 0.78 mg/kg (mouse leukemia L-1210; [5]): 164%; responders at 25 mg/kg (mouse leukemia L-1210): 0%; response vs control in vivo at 25 mg/kg (mouse leukemia L-1210; [5]): 0%"
